Test results taken from ChEMBL document CHEMBL1201862, “PubChem BioAssay data set” (2004).
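Where inhibition never reached the appropriate level, the endpoint shown equals the highest concentration tested. Otherwise, values were interpolated linearly from a five-concentration, 48-hour dose response in 96-well plates. GI50 = concentration required for 50% inhibition of growth.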 Activity calls are given as the source filed them. Rule as the data show it: active = GI50 up to about 1.1 µM and inactive = higher.

Experiments:
Assay in all cases: DTP human tumour cell line panel, 48 h
[1] = tested on: DMS-273
[2] = tested on: DMS-114
[3] = tested on: SNB-78
[4] = tested on: DLD-1
[5] = tested on: M19-MEL
[6] = tested on: LXFL 529
[7] = tested on: HOP-18
[8] = tested on: XF498
[9] = tested on: RXF 631

Measured: GI50

COC(=O)C(=O)C(C(=O)C=C(C)C)C(=O)C(=O)Nc1nc2ccc([N+](=O)[O-])cc2s1 (stereo not drawn)
inactive: [1] 47.6 µM | [2] 31.4 µM | [3] 58.2 µM | [4] 51.8 µM | [5] > 100 µM | [6] 83.4 µM | [7] 4.51 µM

CC(C)c1cccc(C(C)C)c1/N=C(/N)C#N
inactive: [1] > 43 µM | [8] > 100 µM | [2] 29.9 µM | [3] 99.1 µM | [4] 37 µM | [5] > 60 µM | [6] > 67.1 µM | [7] > 86.1 µM | [9] > 100 µM

OCC(O)C(OC1OC(CO)C(O)C(O)C1O)c1nn(-c2ccccc2)c2nc3cc(Cl)ccc3nc12 (stereo not drawn)
inactive: [8] > 100 µM | [2] > 100 µM | [3] > 100 µM | [4] > 100 µM | [5] > 100 µM | [6] > 100 µM

Nc1c(-c2ccc(Cl)cc2Cl)[n+]([O-])c2ccccc2[n+]1[O-]
inactive: [1] > 100 µM | [8] > 100 µM | [2] > 100 µM | [3] > 100 µM | [4] > 100 µM | [5] > 100 µM | [6] > 100 µM | [7] 76 µM | [9] > 100 µM

CC(=O)O[C@H]1C(N(C)C(=O)c2ccccc2)CC[C@]2(C)C3CC[C@@]4(C)C(CC(O)[C@@H]4C(C)N(C)C)[C@@H]3CCC12 (stereo partly drawn)
inactive: [1] > 100 µM | [8] > 100 µM | [2] > 100 µM | [3] > 100 µM | [4] > 100 µM | [5] > 100 µM | [6] > 100 µM | [7] > 100 µM

FC(F)(F)c1cccc(/C=N/C23CC4CC(CC(C4)C2)C3)c1
inactive: [1] > 100 µM | [8] > 100 µM | [2] > 100 µM | [3] > 100 µM | [5] 27.5 µM

C[C@@H]1[C@@H]2[C@@H](C=C3C4CCC5Cc6nc7c(nc6C[C@@]5(C)C4C[C@H](O)[C@]32CO)CC2CCC3C4=C[C@H]5O[C@@]6(OC(C)(CO)C[C@@H]6O)[C@H](C)[C@@]5(O)[C@]4(C)[C@@H](O)CC3[C@]2(C)C7)O[C@]12CCC(C)(C)O2 (stereo partly drawn)
active: [1] 0.000826 µM | [8] 0.00507 µM | [3] 0.00486 µM | [4] 0.822 µM | [5] 0.966 µM | [6] 0.0118 µM | [7] 0.401 µM

COC(=O)C(CCC#N)(CCC#N)C(=O)OC
inactive: [1] > 100 µM | [8] > 100 µM | [2] > 100 µM | [5] > 100 µM | [6] > 100 µM

O=C(Nc1cccc(C(F)(F)F)c1)C(=O)C(C(=O)c1ccc2ccccc2c1)C1OC(=O)c2ccccc21 (stereo not drawn)
active: [8] 0.887 µM
inactive: [1] 6.3 µM | [2] 6.89 µM | [3] 7.45 µM | [4] 6.35 µM | [5] 8.51 µM | [6] 4.82 µM

N#CCCn1c(S)nnc1CCC(=O)Nc1ccc(Cl)cc1Cl
inactive: [1] > 100 µM | [8] > 100 µM | [2] > 100 µM | [3] > 100 µM | [4] > 100 µM | [5] > 100 µM | [6] > 100 µM | [9] > 100 µM

Cc1ccc(S(=O)(=O)c2c(N)n(CCN(C)C)c3nc4ccccc4nc23)cc1
inactive: [1] > 100 µM | [8] > 100 µM | [2] > 100 µM | [3] > 100 µM | [4] > 100 µM | [5] > 100 µM | [6] > 100 µM | [7] > 100 µM

CCOC(=O)c1sc2c(sc(=O)n2-c2ccccc2)c1O
inactive: [1] 29.4 µM | [8] > 100 µM | [2] 98.9 µM | [3] > 100 µM | [4] 46.3 µM | [5] > 100 µM | [6] > 100 µM | [7] > 100 µM | [9] 58.6 µM

O=c1oc(=O)c2oc3ccccc3oc1=2
inactive: [1] > 100 µM | [8] > 100 µM | [2] > 100 µM | [4] > 100 µM | [5] > 100 µM | [6] > 100 µM | [7] > 100 µM

O=C(CCN1CCC(CCO)CC1)Nc1ccc2c(c1)C(=O)c1ccc(NC(=O)CCN3CCC(CCO)CC3)cc1C2=O
inactive: [1] 6.81 µM | [2] 6.53 µM | [3] 3.43 µM | [4] 10.4 µM | [5] 97.5 µM | [6] 5.25 µM | [7] 25.5 µM

O=C1/C(=C(\Nc2ccccc2)c2ccccc2)C=NN1c1ccccc1
inactive: [1] 61.8 µM | [8] > 100 µM | [2] 50.6 µM | [3] > 100 µM | [4] > 100 µM | [6] > 100 µM | [9] > 100 µM
active: [7] < 0.01 µM

C=CCNC(=O)NCCCC(NC(C)=O)C(=O)NCc1ccccc1 (stereo not drawn)
inactive: [1] > 100 µM | [8] > 100 µM | [5] > 100 µM | [6] > 100 µM | [7] > 100 µM | [9] > 100 µM

COc1cc2c(c(OC)c1O)-c1ccc(SC)c(=O)cc1C(NC(C)=O)CC2 (stereo not drawn)
active: [1] < 0.01 µM | [2] < 0.01 µM | [3] < 0.01 µM | [4] 0.0597 µM | [5] < 0.01 µM | [6] < 0.01 µM

CNC(=O)OCc1nc(SC2CCCCO2)n(C)c1COC(=O)NC (stereo not drawn)
inactive: [1] > 100 µM | [8] > 100 µM | [2] > 100 µM | [3] > 100 µM | [4] > 100 µM | [5] > 100 µM | [6] > 100 µM | [7] > 100 µM | [9] > 100 µM

CC(=O)Nc1ccc(/C=C/C(=O)c2sc(C(N)=S)nc2C)cc1
inactive: [1] > 100 µM | [2] > 100 µM | [3] > 100 µM | [4] > 100 µM | [5] > 100 µM | [7] > 100 µM

CCN(CC)CCn1c2ccccc2c(=O)c2c(O)ccc(O)c21
inactive: [1] 99.1 µM | [8] 21.6 µM | [2] 18.5 µM | [3] 23.4 µM | [6] 19.9 µM | [9] > 45.7 µM

CN1C(=O)N(C)C2(O)c3ccccc3C(=O)C12O (stereo not drawn)
inactive: [1] > 100 µM | [2] > 100 µM | [3] > 100 µM | [4] > 100 µM | [5] > 100 µM | [6] > 100 µM | [7] > 100 µM | [9] > 100 µM

Cc1cc2c(s1)C(=O)c1sccc1C2=O
inactive: [1] 1.24 µM | [8] 1.55 µM | [4] 1.64 µM | [6] 1.19 µM | [7] 1.48 µM

CC(=O)OC1(C(C)=O)CC2(c3ccccc3)OC1(c1ccccc1)c1ccccc12 (stereo not drawn)
inactive: [1] 5.08 µM | [8] 5.51 µM | [2] 3.21 µM | [3] 31.7 µM | [4] 8.34 µM | [5] 9.77 µM | [6] 7.53 µM | [7] 42.5 µM | [9] 16.9 µM

O=C(O)[C@@H](NS(=O)(=O)c1ccc2ccccc2c1)c1ccccc1
inactive: [1] > 100 µM | [8] 75.5 µM | [4] > 100 µM | [5] > 100 µM | [6] > 100 µM | [7] > 100 µM | [9] > 100 µM

OCC(O)COc1c(Cl)ccc(Cl)c1Cl (stereo not drawn)
inactive: [1] > 100 µM | [8] > 100 µM | [2] > 100 µM | [3] > 100 µM | [4] > 100 µM | [5] > 100 µM | [6] > 100 µM | [7] > 100 µM

CC(C)(CN1CCCCC1)C(=O)CC(SCCS(=O)(=O)O)c1ccc(Br)cc1 (stereo not drawn)
active: [8] 0.562 µM | [7] 0.832 µM
inactive: [1] 1.65 µM | [2] 1.75 µM | [3] 4.46 µM | [4] 1.67 µM | [5] 1.66 µM | [6] 1.24 µM
